As usually defined, the IC50 is the concentration needed to halve the response being measured.

Each structure is given as a SMILES string. Structures can show the parent of a compound that is named as a salt.

Here are results for 20 compounds from patent US8853193B2, “Thienopyrimidines containing a substituted alkyl group for pharmaceutical compositions” (Boehringer Ingelheim International GmbH, priority 2010, dated 2014).

Sequence of human Mnk2a (Q9HBH9 whole entry): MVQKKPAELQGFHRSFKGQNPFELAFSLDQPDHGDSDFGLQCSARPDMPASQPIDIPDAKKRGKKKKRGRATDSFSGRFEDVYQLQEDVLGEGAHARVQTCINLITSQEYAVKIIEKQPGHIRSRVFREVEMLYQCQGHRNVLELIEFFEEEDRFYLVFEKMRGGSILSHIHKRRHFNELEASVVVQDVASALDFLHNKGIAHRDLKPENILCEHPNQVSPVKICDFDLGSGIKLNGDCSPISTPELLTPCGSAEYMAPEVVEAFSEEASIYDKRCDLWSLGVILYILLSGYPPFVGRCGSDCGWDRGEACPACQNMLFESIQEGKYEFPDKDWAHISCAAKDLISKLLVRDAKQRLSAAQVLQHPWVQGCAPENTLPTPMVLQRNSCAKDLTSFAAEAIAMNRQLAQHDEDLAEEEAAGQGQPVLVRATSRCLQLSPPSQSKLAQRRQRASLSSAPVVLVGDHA

For the first test, the target named is human Mnk2a (Homo sapiens (Human), UniProt Q9HBH9). As to the kind of experiment: Mnk2a in vitro kinase assay (indirect competitive fluorescence polarization). The class given is biochemical. As to conditions: pre-activated GST-Mnk2a 2.5 nM, 20 μM ATP, 30 μM substrate peptide; read-out: MNK2 IC50. Summed up:
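GST-tagged human Mnk2a expressed in E. coli and glutathione-purified, then activated at 2.5 μM with 150 nM pre-activated NHis-ERK2 and 50 μM ATP in HEPES/KOH pH 7.4, MgCl2, DTT, Brij 78 for 45 min at 30 °C. Phospho-peptide product read by indirect competitive fluorescence polarization against fluorophore-labelled phospho-peptide bound to phospho-specific antibody.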
(In fluorescence polarisation assays a small probe gives low polarisation when free and higher when bound to something large.)
For `Cc1c(C(=O)N[C@H]2C[C@@H]2N)sc2ncnc(Nc3cccnc3OC(C)C)c12` [Compound 36-6, N-((1S,2S)-2-Aminocyclopropyl)-4-(2-isopropoxypyridin-3-ylamino)-5-methylthieno[2,3-d]pyrimidine-6-carboxamide], the IC50 stood at 55 nM.

In the case of `Cc1c(C(=O)NCCCN(C)C)sc2ncnc(Nc3ccc(F)cc3OC(C)CNS(C)(=O)=O)c12` (centres unmarked) [Compound 3-3], the IC50 came to 18 nM.

As to `Cc1c(C(=O)NCC(C)O)sc2ncnc(Nc3cccnc3OC(C)C)c12` (centres unmarked) [Compound 36-13, N-(2-Hydroxypropyl)-4-(2-isopropoxypyridin-3ylamino)-5-methylthieno[2,3-d]pyrimidine-6-carboxamide], the concentration for half-maximal inhibition (IC50) came to 54 nM.

With `COC(=O)c1sc2ncnc(Nc3ccc(F)cc3OC(C)CNS(=O)(=O)C(C)C)c2c1C` (centres unmarked) [Compound 3-2, Methyl 4-(4-fluoro-2-(1-(1-methylethylsulfon-amino)propan-2yloxy)-phenylamino)-5-methyl-thieno[2,3-d]pyrimidine-6-carboxylate], the IC50 stood at 204 nM.

For the compound `CCC(CN)Oc1cc(F)ccc1Nc1ncnc2sc(C(=O)OC)c(C)c12` (centres unmarked) [Compound 10-2, Methyl 4-(2-(1-aminobutan-2yloxy)-4-fluorophenylamino)-5-methyl-thieno[2,3-d]pyrimidine-6-carboxylate hydrochloride], the IC50 was 229 nM.

On to `COC(=O)c1sc2ncnc(Nc3ccc(F)cc3OC(C)C(=O)NCCN(C)C)c2c1C` (centres unmarked) [Compound 62, 4-{2-[1-(2-Dimethylamino-ethylcabamoyl)-ethoxy]-4-fluoro-phenylamino}-5-methyl-thieno[2,3-d]pyrimidine-6-carboxylic acid methyl ester], for which the IC50 came out at 267 nM.

As for `Cc1c(C(=O)NCCCN(C)C)sc2ncnc(Nc3cccnc3OCC3(CC#N)CC3)c12` [Compound 33, 4-(2-((1-(Cyanomethyl)cyclopropyl)methoxy)pyridin-3-ylamino)-N-(3-(dimethylamino)propyl)-5-methylthieno[2,3-d]pyrimidine-6-carboxamide hydrochloride], the IC50 was determined as 47 nM.

For `Cc1c(C(N)=O)sc2ncnc(Nc3ccc(F)cc3O[C@@H](C)CNC(=O)OC(C)(C)C)c12` (racemic) [Compound 6-1, (R) and (S)-tert-butyl 2-(2-(6-carbamoyl-5-methyl-thieno[2,3-d]pyrimidin-4-ylamino)-5-fluorophenoxy)propylcarbamate], the IC50 stood at 164 nM.

With `Cc1c(C(=O)O)sc2ncnc(Nc3ccc(F)cc3OC(C)CNC(=O)OC(C)(C)C)c12` (centres unmarked) [Compound 1-2, 4-(2-(1-(tert-Butoxycarbonylamino)propan-2-yloxy)-4-fluorophenylamino)-5-methyl-thieno[2,3-d]pyrimidine-6-carboxylic acid], the IC50 was 52 nM.

For `Cc1c(C(N)=O)sc2ncnc(Nc3cccnc3OC(C)CCNS(C)(=O)=O)c12` (centres unmarked) [Compound 45, 4-[2-(3-Methanesulfonylamino-1-methyl-propoxy)-pyridin-3-ylamino]-5-methyl-thieno[2,3-d]pyrimidine-6-carboxylic acid amide], the IC50 was determined as 20 nM.

In the case of `CCNC(=O)C(C)Oc1cc(F)ccc1Nc1ncnc2sc(C(=O)OC)c(C)c12` (centres unmarked) [Compound 61, 4-[2-(1-Ethylcarbamoyl-ethoxy)-4-fluoro-phenylamino}-5-methylthieno[2,3d]pyrimidine-6-carboxylic acid methyl ester], the IC50 was 77 nM.

Take `COC(=O)c1sc2ncnc(Nc3ccc(F)cc3OC(C)CNC(=O)C(C)C)c2c1C` (centres unmarked) [Compound 3-5, Methyl 4-(4-fluoro2-(1-isobutyramidopropan-2-yloxy)phenylamino)-5-methylthieno[2,3-d]-pyrimidine-6-carboxylate]: the IC50 is 443 nM.

As for `CCCCNC(=O)NCCC(C)Oc1cc(F)ccc1Nc1ncnc2sc(C(=O)OC)c(C)c12` (centres unmarked) [Compound 13-4, Methyl 4-(2-(4-(3-butylureido)-butan-2-yloxy)-4-fluorophenyl-amino)-5-methylthieno[2,3-d]pyrimidine-6-carboxylate], the IC50 worked out at 898 nM.

As to `Cc1c(C(N)=O)sc2ncnc(Nc3ccc(F)cc3OC(C)CF)c12` (centres unmarked) [Compound 32-28], the IC50 was determined as 3 nM.

With `COC(=O)c1sc2ncnc(Nc3ccc(F)cc3OC(C)CCNS(C)(=O)=O)c2c1C` (centres unmarked) [Compound 13, Methyl 4-(4-fluoro-2-(4-(methylsulfonamido)butan-2yloxy)phenylamino)-5-methyl-thieno[2,3-d]pyrimidine-6-carboxylate], the IC50 stood at 90 nM.

As to `Cc1c(C(=O)NCCN2CCCCC2)sc2ncnc(Nc3cccnc3OC(C)C)c12` [Compound 36-9, 4-(2-Isopropoxypyridin-3ylamino)-5-methyl-N-(2-(piperidin-1-yl)ethyl)thieno[2,3-d]pyrimidine-6-carboxamide], the IC50 was 63 nM.

On to `Cc1c(C(=O)NCCO)sc2ncnc(Nc3ccc(F)cc3OC(CF)CF)c12` [Compound 23-8], for which the IC50 turned out to be 8 nM.

In the case of `Cc1c(C(N)=O)sc2ncnc(Nc3ccc(F)cc3OC(C)C#N)c12` (centres unmarked) [Compound 54], the IC50 came to 11 nM.

On to `Cc1c(C(=O)NCCCN(C)C)sc2ncnc(Nc3cccnc3OCC(C)F)c12` (centres unmarked) [Compound 27-4, N-(3-(dimethylamino)-propyl)-4-(2-(2-fluoro-propoxy)pyridin-3-ylamino)-5-methyl-thieno[2,3-d]pyrimidine-6-carboxamide hydrochloride], for which the IC50 came out at 73 nM.

The next test deals with Mnk2 (Mnk2a or Mnk2b) or Mnk1.
Assay: not given
Conditions: cells transfected with Mnk2 (Mnk2a or Mnk2b) or Mnk1; cited from earlier work.
For `Nc1ncnc2n[nH]c(Nc3ccc(F)cc3)c12` [CGP57380], the “reduction of phosphorylated eIF4E” value was “strong reduction of phosphorylated eIF4E”.
